Data published in patent US20220340629A1, “Myosin Derived Peptides and Related Compounds with Anticoagulant Activities” (THE SCRIPPS RESEARCH INSTITUTE, priority 0001, published 2022).
pIC50: −log10 of the molar value. Residues, ends and D or L forms follow the SMILES beside them.

target: skeletal muscle myosin-supported prothrombin activation by factors Xa and Va (Homo sapiens, UniProt P00742); assay: Assay 1A: prothrombin activation by factor Xa/factor Va/myosin in purified system; type: biochemical, human factors Xa and Va; rabbit skeletal muscle myosin; conditions: purified system; skeletal muscle myosin, factor Va 5 nM, factor Xa 0.2 nM, prothrombin 0.75 μM, 10 min; read-out: 1A (+myosin)
Sequence (P00742 41-179): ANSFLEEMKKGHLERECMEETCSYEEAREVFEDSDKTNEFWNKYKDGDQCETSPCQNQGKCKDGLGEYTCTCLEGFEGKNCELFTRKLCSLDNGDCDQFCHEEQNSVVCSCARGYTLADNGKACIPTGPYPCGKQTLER
Sequence (P00742 235-488): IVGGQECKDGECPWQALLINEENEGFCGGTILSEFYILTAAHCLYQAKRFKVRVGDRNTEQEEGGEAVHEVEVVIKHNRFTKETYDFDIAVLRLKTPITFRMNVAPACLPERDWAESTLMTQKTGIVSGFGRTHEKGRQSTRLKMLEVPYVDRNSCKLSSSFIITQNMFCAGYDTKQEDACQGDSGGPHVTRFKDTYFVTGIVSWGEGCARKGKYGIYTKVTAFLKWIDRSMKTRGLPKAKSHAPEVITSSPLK
Sequence (P12259 29-737 partner): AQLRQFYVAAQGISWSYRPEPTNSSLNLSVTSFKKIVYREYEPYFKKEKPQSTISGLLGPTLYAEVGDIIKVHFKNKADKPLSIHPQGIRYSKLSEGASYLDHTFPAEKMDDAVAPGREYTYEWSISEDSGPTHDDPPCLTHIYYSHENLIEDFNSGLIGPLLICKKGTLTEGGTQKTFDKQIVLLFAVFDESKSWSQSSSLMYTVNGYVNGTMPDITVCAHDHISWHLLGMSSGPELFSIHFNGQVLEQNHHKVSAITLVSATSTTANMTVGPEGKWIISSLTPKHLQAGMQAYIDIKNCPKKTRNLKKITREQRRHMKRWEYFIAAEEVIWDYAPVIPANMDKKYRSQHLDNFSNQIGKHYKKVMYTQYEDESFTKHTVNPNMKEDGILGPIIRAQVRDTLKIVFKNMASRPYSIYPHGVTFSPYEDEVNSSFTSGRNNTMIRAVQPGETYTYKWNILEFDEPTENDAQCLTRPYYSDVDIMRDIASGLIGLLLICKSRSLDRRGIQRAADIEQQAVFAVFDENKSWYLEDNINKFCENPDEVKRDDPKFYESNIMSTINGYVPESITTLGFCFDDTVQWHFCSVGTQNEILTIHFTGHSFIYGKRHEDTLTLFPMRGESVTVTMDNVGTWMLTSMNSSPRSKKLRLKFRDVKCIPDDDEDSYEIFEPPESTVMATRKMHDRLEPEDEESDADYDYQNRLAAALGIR
Sequence (P12259 1574-2224 partner): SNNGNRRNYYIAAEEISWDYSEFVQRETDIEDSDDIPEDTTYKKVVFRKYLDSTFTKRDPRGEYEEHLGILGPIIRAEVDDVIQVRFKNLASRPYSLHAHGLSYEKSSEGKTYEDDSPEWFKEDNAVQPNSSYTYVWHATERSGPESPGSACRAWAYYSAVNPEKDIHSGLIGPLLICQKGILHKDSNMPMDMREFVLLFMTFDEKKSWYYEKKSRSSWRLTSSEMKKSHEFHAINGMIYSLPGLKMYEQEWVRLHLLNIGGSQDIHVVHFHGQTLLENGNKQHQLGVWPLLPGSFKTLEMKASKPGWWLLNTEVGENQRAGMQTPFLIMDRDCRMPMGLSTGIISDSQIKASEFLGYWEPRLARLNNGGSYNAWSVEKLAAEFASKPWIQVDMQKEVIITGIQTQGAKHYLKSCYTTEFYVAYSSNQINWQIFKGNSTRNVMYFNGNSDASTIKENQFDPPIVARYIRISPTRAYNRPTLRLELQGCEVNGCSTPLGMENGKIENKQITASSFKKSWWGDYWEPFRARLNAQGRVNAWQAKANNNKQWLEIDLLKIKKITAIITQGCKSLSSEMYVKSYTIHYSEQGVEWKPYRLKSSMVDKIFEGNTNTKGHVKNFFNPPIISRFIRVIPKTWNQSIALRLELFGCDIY

CC[C@H](C)[C@H](NC(=O)[C@H](C)N)C(=O)N[C@@H](Cc1ccccc1)C(=O)N[C@@H](CS)C(=O)N[C@H](C(=O)N[C@@H](CCC(N)=O)C(=O)N[C@@H](Cc1ccc(O)cc1)C(=O)N[C@@H](CC(N)=O)C(=O)N[C@H](C(=O)N[C@@H](CCCNC(=N)N)C(=O)N[C@@H](C)C(=O)N[C@@H](Cc1ccccc1)C(=O)N[C@@H](CCSC)C(=O)N[C@@H](CC(N)=O)C(=O)N[C@H](C(=O)N[C@@H](CCCCN)C(=O)N[C@@H](Cc1c[nH]cn1)C(=O)N[C@@H](Cc1c[nH]c2ccccc12)C(=O)N1CCC[C@H]1C(=O)N[C@@H](Cc1c[nH]c2ccccc12)C(=O)N[C@@H](CCSC)C(=O)N[C@@H](CCCCN)C(N)=O)C(C)C)[C@@H](C)CC)[C@@H](C)CC [HC126] (H-AIFCIQYNIRAFMNVKHWPWMK-NH2; N-terminus assumed) and CC[C@H](C)[C@H](NC(=O)[C@H](C)N)C(=O)N[C@@H](Cc1ccccc1)C(=O)N[C@@H](CS)C(=O)N[C@H](C(=O)N[C@@H](CCC(N)=O)C(=O)N[C@@H](Cc1ccc(O)cc1)C(=O)N[C@@H](CC(N)=O)C(=O)N[C@H](C(=O)N[C@@H](CCCNC(=N)N)C(=O)N[C@@H](CO)C(=O)N[C@@H](Cc1ccccc1)C(=O)N[C@@H](CCSC)C(=O)N[C@@H](C)C(=O)N[C@H](C(=O)N[C@@H](CCCCN)C(=O)N[C@@H](Cc1c[nH]cn1)C(=O)N[C@@H](Cc1c[nH]c2ccccc12)C(=O)N1CCC[C@H]1C(=O)N[C@@H](Cc1c[nH]c2ccccc12)C(=O)N[C@@H](CCSC)C(=O)N[C@@H](CCCCN)C(N)=O)C(C)C)[C@@H](C)CC)[C@@H](C)CC [HC129] (H-AIFCIQYNIRSFMAVKHWPWMK-NH2; N-terminus assumed) are within 0.2 log units of each other in pIC50: 5.31 for the first, 5.38 for the second.

Compared with CC[C@H](C)[C@H](NC(=O)[C@H](C)N)C(=O)N[C@@H](Cc1ccccc1)C(=O)N[C@@H](CS)C(=O)N[C@H](C(=O)N[C@@H](CCC(N)=O)C(=O)N[C@@H](Cc1ccc(O)cc1)C(=O)N[C@@H](CC(N)=O)C(=O)N[C@H](C(=O)N[C@@H](CCCNC(=N)N)C(=O)N[C@@H](CO)C(=O)N[C@@H](C)C(=O)N[C@@H](CCSC)C(=O)N[C@@H](CC(N)=O)C(=O)N[C@H](C(=O)N[C@@H](CCCCN)C(=O)N[C@@H](Cc1c[nH]cn1)C(=O)N[C@@H](Cc1c[nH]c2ccccc12)C(=O)N1CCC[C@H]1C(=O)N[C@@H](Cc1c[nH]c2ccccc12)C(=O)N[C@@H](CCSC)C(=O)N[C@@H](CCCCN)C(N)=O)C(C)C)[C@@H](C)CC)[C@@H](C)CC [HC127] (H-AIFCIQYNIRSAMNVKHWPWMK-NH2; N-terminus assumed), CC[C@H](C)[C@H](NC(=O)[C@H](C)N)C(=O)N[C@@H](Cc1ccccc1)C(=O)N[C@@H](CS)C(=O)N[C@H](C(=O)N[C@@H](CCC(N)=O)C(=O)N[C@@H](Cc1ccc(O)cc1)C(=O)N[C@@H](CC(N)=O)C(=O)N[C@H](C(=O)N[C@@H](CCCNC(=N)N)C(=O)N[C@@H](CO)C(=O)N[C@@H](Cc1ccccc1)C(=O)N[C@@H](C)C(=O)N[C@@H](CC(N)=O)C(=O)N[C@H](C(=O)N[C@@H](CCCCN)C(=O)N[C@@H](Cc1c[nH]cn1)C(=O)N[C@@H](Cc1c[nH]c2ccccc12)C(=O)N1CCC[C@H]1C(=O)N[C@@H](Cc1c[nH]c2ccccc12)C(=O)N[C@@H](CCSC)C(=O)N[C@@H](CCCCN)C(N)=O)C(C)C)[C@@H](C)CC)[C@@H](C)CC [HC128] (H-AIFCIQYNIRSFANVKHWPWMK-NH2; N-terminus assumed) is 0.47 log units higher in pIC50: 5.23 for the first, 5.70 for the second. The second is the more potent here.

For CC[C@H](C)[C@H](NC(=O)[C@H](C)N)C(=O)N[C@@H](Cc1ccccc1)C(=O)N[C@@H](CS)C(=O)N[C@H](C(=O)N[C@@H](CCC(N)=O)C(=O)N[C@@H](Cc1ccc(O)cc1)C(=O)N[C@@H](CC(N)=O)C(=O)N[C@H](C(=O)N[C@@H](CCCNC(=N)N)C(=O)N[C@@H](CO)C(=O)N[C@@H](Cc1ccccc1)C(=O)N[C@@H](CCSC)C(=O)N[C@@H](CC(N)=O)C(=O)N[C@@H](C)C(=O)N[C@@H](CCCCN)C(=O)N[C@@H](Cc1c[nH]cn1)C(=O)N[C@@H](Cc1c[nH]c2ccccc12)C(=O)N1CCC[C@H]1C(=O)N[C@@H](Cc1c[nH]c2ccccc12)C(=O)N[C@@H](CCSC)C(=O)N[C@@H](CCCCN)C(N)=O)[C@@H](C)CC)[C@@H](C)CC [HC130] (H-AIFCIQYNIRSFMNAKHWPWMK-NH2; N-terminus assumed), the pIC50 was 5.68.
